Reference: PMC7827406, “Structure–Activity Relationship (SAR) Study of Spautin-1 to Entail the Discovery of Novel NEK4 Inhibitors” (International Journal of Molecular Sciences, 2021)
Read-outs that look alike come from different tables or passages of the source.

How the values were obtained:
Assay in all cases: biochemical
Parameters in all cases: Eurofins KinaseProfiler full panel at Km ATP, residual kinase activity (%) relative to DMSO
ALK2(h) = target: T1, ALK2(h) (Homo sapiens, UniProt Q04771)
T1 construct: gene ACVR1
T1 sequence (Q04771 1-509): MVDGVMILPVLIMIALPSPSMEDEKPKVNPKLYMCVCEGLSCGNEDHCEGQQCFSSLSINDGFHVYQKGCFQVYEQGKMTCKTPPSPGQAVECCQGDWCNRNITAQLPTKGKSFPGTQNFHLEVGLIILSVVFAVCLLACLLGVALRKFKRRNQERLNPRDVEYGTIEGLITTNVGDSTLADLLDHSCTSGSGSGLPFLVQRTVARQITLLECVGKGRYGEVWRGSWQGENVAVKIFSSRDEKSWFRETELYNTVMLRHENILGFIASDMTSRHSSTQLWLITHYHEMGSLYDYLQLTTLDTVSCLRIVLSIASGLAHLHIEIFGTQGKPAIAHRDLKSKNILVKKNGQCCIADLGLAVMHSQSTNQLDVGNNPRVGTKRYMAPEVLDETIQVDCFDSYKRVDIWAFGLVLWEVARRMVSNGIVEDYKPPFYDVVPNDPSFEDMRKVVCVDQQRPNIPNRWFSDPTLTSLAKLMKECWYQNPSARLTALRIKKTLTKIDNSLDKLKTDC
In short: (§1)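 Radiometric kinase activity assays were run with ATP at Km and compounds at 10 µM, and remaining activity (%) was reported. A separate competitive binding screen measured DNA-tagged kinase displaced from immobilized active-site ligands by qPCR, giving percent kinase still bound at 10 µM compound in DMSO.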

DYRK1B(h) = DYRK1B(h) (Homo sapiens, UniProt Q9Y463)
In short: as §1

GRK2(h) = target: T2, GRK2(h) (Homo sapiens, UniProt P25098)
T2 sequence (P25098 1-689): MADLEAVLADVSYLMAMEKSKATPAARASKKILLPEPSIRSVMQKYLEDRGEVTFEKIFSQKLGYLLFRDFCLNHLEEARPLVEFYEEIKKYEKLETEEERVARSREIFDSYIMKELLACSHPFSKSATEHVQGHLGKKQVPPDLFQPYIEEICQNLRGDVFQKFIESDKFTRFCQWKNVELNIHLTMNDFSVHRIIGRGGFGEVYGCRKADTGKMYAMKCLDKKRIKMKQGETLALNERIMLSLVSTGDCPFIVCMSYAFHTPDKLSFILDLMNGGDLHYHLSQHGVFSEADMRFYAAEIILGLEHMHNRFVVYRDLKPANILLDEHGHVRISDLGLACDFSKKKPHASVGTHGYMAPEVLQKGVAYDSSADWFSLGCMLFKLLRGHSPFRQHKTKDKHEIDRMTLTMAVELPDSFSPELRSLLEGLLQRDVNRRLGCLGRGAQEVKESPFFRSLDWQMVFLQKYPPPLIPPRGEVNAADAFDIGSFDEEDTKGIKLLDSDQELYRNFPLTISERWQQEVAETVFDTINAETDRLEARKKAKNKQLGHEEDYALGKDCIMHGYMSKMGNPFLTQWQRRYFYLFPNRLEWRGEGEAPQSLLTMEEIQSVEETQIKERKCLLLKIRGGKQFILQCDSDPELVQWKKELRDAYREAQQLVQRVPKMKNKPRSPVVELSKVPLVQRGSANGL
In short: as §1

IRAK1(h) = IRAK1(h) (Homo sapiens, UniProt P51617)
In short: as §1

MEKK2(h) = target: T3, MEKK2(h) (Homo sapiens, UniProt Q9Y2U5)
T3 construct: gene MAP3K2
T3 sequence (Q9Y2U5 1-619): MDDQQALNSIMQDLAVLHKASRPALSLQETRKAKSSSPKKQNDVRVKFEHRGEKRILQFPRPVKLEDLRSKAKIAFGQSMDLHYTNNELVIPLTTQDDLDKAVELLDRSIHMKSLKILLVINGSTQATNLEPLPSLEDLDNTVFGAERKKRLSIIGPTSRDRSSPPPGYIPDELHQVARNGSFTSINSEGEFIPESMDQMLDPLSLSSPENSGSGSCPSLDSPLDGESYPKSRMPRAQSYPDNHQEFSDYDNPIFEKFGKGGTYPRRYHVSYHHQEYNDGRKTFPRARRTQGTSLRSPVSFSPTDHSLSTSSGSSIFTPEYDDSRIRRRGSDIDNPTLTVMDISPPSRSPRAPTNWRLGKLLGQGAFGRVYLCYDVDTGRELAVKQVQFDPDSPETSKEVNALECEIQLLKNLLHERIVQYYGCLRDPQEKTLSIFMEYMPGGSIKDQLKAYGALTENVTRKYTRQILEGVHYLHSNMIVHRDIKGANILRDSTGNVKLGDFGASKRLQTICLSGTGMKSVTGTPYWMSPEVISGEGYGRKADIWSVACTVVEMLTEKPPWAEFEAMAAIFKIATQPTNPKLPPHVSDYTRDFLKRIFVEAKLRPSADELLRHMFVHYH
In short: as §1

[1] = read-out: Residual activity (%) 5at
[2] = read-out: Residual activity (%) 5as
[3] = read-out: Residual activity (%) 5ay
[4] = read-out: Residual activity (%) Spautin-1 5aa

Chain of DYRK1B(h) (Q9Y463 whole entry): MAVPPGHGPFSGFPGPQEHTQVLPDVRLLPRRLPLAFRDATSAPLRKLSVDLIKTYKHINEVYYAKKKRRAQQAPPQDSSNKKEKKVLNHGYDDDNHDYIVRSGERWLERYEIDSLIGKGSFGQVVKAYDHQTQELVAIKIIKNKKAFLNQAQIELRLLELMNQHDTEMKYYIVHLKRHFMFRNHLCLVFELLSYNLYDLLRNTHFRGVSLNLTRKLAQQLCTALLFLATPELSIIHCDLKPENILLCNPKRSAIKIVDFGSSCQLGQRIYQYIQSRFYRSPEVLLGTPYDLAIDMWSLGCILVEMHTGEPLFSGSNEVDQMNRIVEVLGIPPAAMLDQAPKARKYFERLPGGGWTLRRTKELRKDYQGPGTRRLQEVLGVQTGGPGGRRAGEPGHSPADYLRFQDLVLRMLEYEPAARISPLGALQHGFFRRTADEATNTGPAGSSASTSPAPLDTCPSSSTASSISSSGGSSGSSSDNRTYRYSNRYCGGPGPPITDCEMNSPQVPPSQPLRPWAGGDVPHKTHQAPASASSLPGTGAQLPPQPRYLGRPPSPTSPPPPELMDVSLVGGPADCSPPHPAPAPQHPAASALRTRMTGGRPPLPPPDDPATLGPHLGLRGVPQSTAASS
Chain of IRAK1(h) (P51617 whole entry): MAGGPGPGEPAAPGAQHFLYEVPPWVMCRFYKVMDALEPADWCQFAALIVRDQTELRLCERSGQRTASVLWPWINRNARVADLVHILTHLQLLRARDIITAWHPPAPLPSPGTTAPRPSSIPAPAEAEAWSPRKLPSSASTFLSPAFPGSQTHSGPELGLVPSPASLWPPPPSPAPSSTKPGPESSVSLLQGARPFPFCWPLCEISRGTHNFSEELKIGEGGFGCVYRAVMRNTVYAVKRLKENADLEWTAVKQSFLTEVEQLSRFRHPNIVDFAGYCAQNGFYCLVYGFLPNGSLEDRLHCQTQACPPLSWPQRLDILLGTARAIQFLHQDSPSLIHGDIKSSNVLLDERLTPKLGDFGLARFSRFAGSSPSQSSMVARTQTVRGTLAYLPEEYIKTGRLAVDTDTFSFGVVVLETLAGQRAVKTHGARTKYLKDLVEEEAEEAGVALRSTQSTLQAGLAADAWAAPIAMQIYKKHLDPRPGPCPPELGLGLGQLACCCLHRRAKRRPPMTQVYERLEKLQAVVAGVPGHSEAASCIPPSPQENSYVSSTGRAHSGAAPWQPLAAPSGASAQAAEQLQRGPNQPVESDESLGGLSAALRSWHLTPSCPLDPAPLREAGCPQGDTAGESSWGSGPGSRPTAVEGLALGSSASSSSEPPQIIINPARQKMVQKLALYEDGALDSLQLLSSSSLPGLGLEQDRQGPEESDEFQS

Compound: Fc1ccc2ncnc(NCCc3ccc(Cl)cc3)c2c1 [5at, N-[2-(4-Chlorophenyl)Ethyl]-6-Fluoro-4-Quinazolinamine]
- remaining activity at 10 µM (ALK2(h); [1]): 58%
- remaining activity at 10 µM (DYRK1B(h); [1]): 92%
- remaining activity at 10 µM (GRK2(h); [1]): 107%
- remaining activity at 10 µM (IRAK1(h); [1]): 106%
- remaining activity at 10 µM (MEKK2(h); [1]): 102%

Compound: Fc1ccc(CCNc2ncnc3ccc(F)cc23)cc1 [5as, 6-Fluoro-N-[2-(4-Fluorophenyl)Ethyl]-4-Quinazolinamine]
- remaining activity at 10 µM (ALK2(h); [2]): 45%
- remaining activity at 10 µM (DYRK1B(h); [2]): 82%
- remaining activity at 10 µM (GRK2(h); [2]): 101%
- remaining activity at 10 µM (IRAK1(h); [2]): 87%
- remaining activity at 10 µM (MEKK2(h); [2]): 99%

Compound: COc1ccc2ncnc(Nc3cccc(F)c3)c2c1 [5ay, N-(3-Fluorophenyl)-6-Methoxy-4-Quinazolinamine]
- remaining activity at 10 µM (ALK2(h); [3]): 50%
- remaining activity at 10 µM (DYRK1B(h); [3]): 53%
- remaining activity at 10 µM (GRK2(h); [3]): 95%
- remaining activity at 10 µM (IRAK1(h); [3]): 87%
- remaining activity at 10 µM (MEKK2(h); [3]): 108%

Compound: Fc1ccc(CNc2ncnc3ccc(F)cc23)cc1 [5aa, 6-Fluoro-N-(4-fluorobenzyl)-4-Quinazolinamine]
- remaining activity at 10 µM (ALK2(h); [4]): 60%
- remaining activity at 10 µM (DYRK1B(h); [4]): 88%
- remaining activity at 10 µM (GRK2(h); [4]): 107%
- remaining activity at 10 µM (IRAK1(h); [4]): 114%
- remaining activity at 10 µM (MEKK2(h); [4]): 113%
